These results are taken from US10265307B2, “Thiazolecarboxamides and pyridinecarboxamide compounds useful as Pim kinase inhibitors” (Incyte Corporation, priority 2013, dated 2019).

What all share (format): biochemical
The target of test [1] is Pim-1 (Homo sapiens (Human), UniProt P11309). Briefly: Pim-1 kinase assay. The conditions noted are these: 1 mM ATP; read-out: Pim1 IC50. As to the method:
Supplementation of the STOP buffer with beads and stopping the reactions were done under reduced light. Prior to the stopping reactions STOP buffer with beads was pre-incubated for 1 h in the dark at room temperature. After stopping the reactions, plates were incubated for 1 h in the dark at room temperature before reading on a PHERAstar FS plate reader (BMG Labtech) under reduced light.

The target of test [2] is Pim-2 (Homo sapiens (Human), UniProt Q9P1W9). Kind of test: Pim-2 kinase assay. The note with it: 1 mM ATP; read-out: Pim2 IC50. The method, then:
Pim-2 kinase assay-20 μL reactions were run in white 384 well polystyrene plates dotted with 0.8 μL compound/DMSO in the assay buffer (50 mM Tris, pH 7.5, 0.01% Tween-20, 5 mM MgCl2, 0.01% BSA, 5 mM DTT), containing 0.05 μM Fluorescein-labeled CREBtide peptide substrate (Invitrogen PV3508), 1 mM ATP, and 1 nM enzyme (Invitrogen PV3649) for 2 h at 25° C. Reactions were stopped by addition of 10 μL TR-FRET Dilution Buffer (Invitrogen PV3574) with 30 mM EDTA and 1.5 nM LanthaScreen Tb-CREB pSer133 antibody (Invitrogen PV3566). After 30 min. incubation at room temperature, plates were read on a PHERAstar FS plate reader (BMG Labtech).
Although the above in vitro assays are conducted at 1 mM ATP compounds can also be evaluated for potency and in vitro activity against PIM targets utilizing Km conditions, where the concentration of ATP is set to the Km value and the assay is more sensitive to PIM inhibition activity.

The target of test [3] is Pim-3 (Homo sapiens (Human), UniProt Q86V86). Briefly: Pim-3 kinase assay. The conditions noted are these: 1 mM ATP; read-out: Pim3 IC50. The method, then:
Pim-1 and Pim-3 kinase assays-20 μL reactions were run in white 384 well polystyrene plates dotted with 0.8 μL compound/DMSO in the assay buffer (50 mM Tris, pH 7.5, 0.01% Tween-20, 5 mM MgCl2, 0.01% BSA, 5 mM DTT), containing 0.05 μM Biotin-labeled BAD peptide substrate (AnaSpec 62269), 1 mM ATP, and […] (Pim-1, Invitrogen PV3503) or […] (Pim-3, Millipore 14-738) enzyme for 1 h at 25° C. Reactions were stopped by addition of 10 μL STOP Buffer (150 mM Tris, pH=7.5, 150 mM NaCl, 75 mM EDTA, 0.01% Tween-20, 0.3% BSA) supplemented with Phospho-Bad (Ser112) Antibody (Cell Signaling 9291) diluted 666-fold, and Streptavidin donor beads (PerkinElmer 6760002) along with Protein-A acceptor beads (PerkinElmer 6760137) at 15 μg/mL each. Supplementation of the STOP buffer with beads and stopping the reactions were done under reduced light. Prior to the stopping reactions STOP buffer with beads was pre-incubated for 1 h in the dark at room temperature. After stopping the reactions, plates were incubated for 1 h in the dark at room temperature before reading on a PHERAstar FS plate reader (BMG Labtech) under reduced light.

The structures appear in SMILES notation. Where only a bound is given, the exact number is not on record here.

Chain of Pim-2 (Q9P1W9 whole entry): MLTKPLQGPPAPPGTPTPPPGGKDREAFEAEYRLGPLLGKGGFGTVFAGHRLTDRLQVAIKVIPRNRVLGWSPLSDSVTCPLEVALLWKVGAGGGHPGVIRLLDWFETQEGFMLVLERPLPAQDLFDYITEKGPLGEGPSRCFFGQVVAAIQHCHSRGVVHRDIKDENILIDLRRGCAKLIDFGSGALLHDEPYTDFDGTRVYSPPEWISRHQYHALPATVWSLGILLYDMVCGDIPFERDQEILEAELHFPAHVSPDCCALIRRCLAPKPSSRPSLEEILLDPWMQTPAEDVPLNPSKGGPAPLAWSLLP
Chain of Pim-1 (P11309 whole entry): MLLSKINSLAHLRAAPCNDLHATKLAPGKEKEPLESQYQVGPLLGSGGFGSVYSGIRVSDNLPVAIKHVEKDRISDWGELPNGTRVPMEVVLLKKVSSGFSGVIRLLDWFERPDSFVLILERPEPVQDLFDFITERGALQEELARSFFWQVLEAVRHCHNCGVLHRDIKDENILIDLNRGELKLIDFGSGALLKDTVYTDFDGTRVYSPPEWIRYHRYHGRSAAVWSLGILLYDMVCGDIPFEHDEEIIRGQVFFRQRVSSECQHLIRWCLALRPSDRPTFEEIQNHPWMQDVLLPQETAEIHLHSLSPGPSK

What is called IC50 is the point on the concentration scale where inhibition reaches its midpoint. Turning to `C[C@H]1CN(c2c(NC(=O)c3ccc(F)c(-c4c(F)cccc4F)n3)cnc3c2CCC3O)C[C@@H](N)C1(C)O` (single isomer, unassigned) [63 (Diastereoisomer 1)], the IC50 in test [1], in test [2] and in test [3] was at most 100 nM each time.

Take `CC(C)(O)c1cc(F)c(-c2nc(C(=O)Nc3cnc4c(c3N3C[C@@H](N)C[C@@H](C(F)(F)F)C3)CCC4O)ccc2F)c(F)c1` (single isomer, unassigned) [72 (Diastereoisomer 2)]: the IC50 in test [1], in test [2] and in test [3] was at most 100 nM in each case.

On to `N[C@H]1CCCN(c2c(NC(=O)c3ccc(F)c(-c4c(F)cccc4F)n3)cnc3c2CCC3)C1` [Example 21, N-{4-[(3S)-3-Aminopiperidin-1-yl]-6,7-dihydro-5H-cyclopenta[b]pyridin-3-yl}-6-(2,6-difluorophenyl)-5-fluoropyridine-2-carboxamide], for which the IC50 in test [1], in test [2] and in test [3] was at most 100 nM throughout.

As to `COc1ccc(F)c(-c2nc(C(=O)Nc3cnc4c(c3N3C[C@H](C)C[C@H](N)C3)CCO4)ccc2F)c1F` [Example 73, N-{4-[(3S,5R)-3-Amino-5-methylpiperidin-1-yl]-2,3-dihydrofuro[2,3-b]pyridin-5-yl}-6-(2,6-difluoro-3-methoxyphenyl)-5-fluoropyridine-2-carboxamide], the IC50 in test [1], in test [2] and in test [3] was at most 100 nM in each case.

For the molecule `N[C@@H]1CN(c2c(NC(=O)c3ccc(F)c(-c4c(F)cccc4F)n3)cnc3c2CCC3O)C[C@H](C2CC2)[C@H]1O` (single isomer, unassigned) [68 (Diastereoisomer 1)], the IC50 in test [1], in test [2] and in test [3] was at most 100 nM throughout.

For the molecule `COc1ccc(F)c(-c2nc(C(=O)Nc3cnc4c(c3N3CCC[C@H](N)C3)CCC4O)ccc2F)c1F` (single isomer, unassigned) [55 (Diastereoisomer 1)], the IC50 was at most 100 nM in test [1], 100 to 1000 nM in test [2] and at most 100 nM in test [3].

For the molecule `COCc1cc(F)c(-c2nc(C(=O)Nc3cnc4c(c3N3C[C@@H](N)[C@H](O)[C@@H](C)C3)CCC4O)ccc2F)c(F)c1` (single isomer, unassigned) [66 (Diastereoisomer 2)], the IC50 in test [1], in test [2] and in test [3] was at most 100 nM in each case.

With `Nc1sc(-c2c(F)cccc2F)nc1C(=O)Nc1cnc2[nH]ccc2c1N1CCC[C@H](N)C1` [Example 7, 5-Amino-N-{4-[(3S)-3-aminopiperidin-1-yl]-1H-pyrrolo[2,3-b]pyridin-5-yl}-2-(2,6-difluorophenyl)-1,3-thiazole-4-carboxamide], the IC50 in test [1], in test [2] and in test [3] was at most 100 nM throughout.

Take `C[C@@H]1C[C@H](N)CN(c2c(NC(=O)c3nc(-c4c(F)cccc4F)sc3N)cnc3c2CCC3O)C1` (single isomer, unassigned) [47 (Diastereoisomer 2)]: the IC50 in test [1], in test [2] and in test [3] was at most 100 nM throughout.

Consider `C[C@H]1CN(c2c(NC(=O)c3nc(-c4c(F)cccc4F)sc3N)cnc3c2CCC3O)C[C@@H](N)[C@@H]1O` (single isomer, unassigned) [49 (Diastereoisomer 2)], for which the half-inhibitory concentration (IC50) in test [1], in test [2] and in test [3] was at most 100 nM in each case.

For the molecule `CS(=O)(=O)c1cc(F)c(-c2nc(C(=O)Nc3cnc4c(c3N3CCC[C@H](N)C3)CCC4O)ccc2F)c(F)c1` (single isomer, unassigned) [61 (Diastereoisomer 1)], the IC50 in test [1] is at most 100 nM; in test [2], above 2000 nM; in test [3], above 40 nM.

Turning to `C[C@H]1CN(c2c(NC(=O)c3ccc(F)c(-c4c(F)cccc4F)n3)cnc3c2CCC3)C[C@@H](N)[C@@H]1O` [Example 52, N-{4-[(3R,4R,5S)-3-Amino-4-hydroxy-5-methylpiperidin-1-yl]-6,7-dihydro-5H-cyclopenta[b]pyridin-3-yl}-6-(2,6-difluorophenyl)-5-fluoropyridine-2-carboxamide], the IC50 in test [1], in test [2] and in test [3] was at most 100 nM in each case.

As to `N[C@H]1CCCN(c2c(NC(=O)c3csc(-c4c(F)cccc4F)n3)cnc3ccccc23)C1` [Example 2, N-{4-[(3S)-3-Aminopiperidin-1-yl]quinolin-3-yl}-2-(2,6-difluorophenyl)-1,3-thiazole-4-carboxamide], the IC50 in test [1] was above 40 nM; in test [2], above 2000 nM; in test [3], above 40 nM.

Take `N[C@H]1CCCN(c2c(NC(=O)c3ccc(F)c(-c4c(F)cccc4F)n3)cnc3c2CCCN3)C1` [Example 33, N-{4-[(3S)-3-Aminopiperidin-1-yl]-5,6,7,8-tetrahydro-1,8-naphthyridin-3-yl}-6-(2,6-difluorophenyl)-5-fluoropyridine-2-carboxamide]: the IC50 in test [1] is at most 100 nM; in test [2], 100 to 1000 nM; in test [3] it was at most 100 nM.

Consider `N#CC1CCc2c1ncc(NC(=O)c1nc(-c3c(F)cccc3F)sc1N)c2N1CCC[C@H](N)C1` (single isomer, unassigned) [18 (Diastereoisomer 1)], for which the IC50 in test [1] is at most 100 nM; in test [2], 100 to 1000 nM; in test [3], at most 100 nM.

On to `Nc1sc(-c2c(F)cccc2F)nc1C(=O)Nc1cnc2ccsc2c1N1CC[C@H](O)[C@H](N)C1` (single isomer, unassigned) [Example 30, 5-Amino-N-{7-[3.4-cis-3-amino-4-hydroxypiperidin-1-yl]thieno[3,2-b]pyridin-6-yl}-2-(2,6-difluorophenyl)-1,3-thiazole-4-carboxamide], for which the values for the IC50 in test [1], in test [2] and in test [3] were at most 100 nM, 100 to 1000 nM and at most 100 nM, respectively.

For the molecule `N[C@H]1CCCN(c2c(NC(=O)c3ccc(F)c(-c4c(F)cccc4F)n3)cnc3c2CCC3O)C1` (single isomer, unassigned) [22 (Diastereoisomer 1)], the IC50 is at most 100 nM in test [1], 100 to 1000 nM in test [2] and at most 100 nM in test [3].

For the molecule `N[C@H]1CCCN(c2c(NC(=O)c3csc(-c4c(F)cccc4F)n3)cnc3c2CCC3)C1` [Example 13, N-{4-[(3S)-3-Aminopiperidin-1-yl]-6,7-dihydro-5H-cyclopenta[b]pyridin-3-yl}-2-(2,6-difluorophenyl)-1,3-thiazole-4-carboxamide], the IC50 in test [1] was at most 100 nM; in test [2], above 2000 nM; in test [3], at most 100 nM.

Regarding `COc1ccc(F)c(-c2nc(C(=O)Nc3cnc4c(c3N3C[C@H](C)C[C@H](N)C3)CCC4O)c(N)s2)c1F` (single isomer, unassigned) [54 (Diastereoisomer 1)], the IC50 in test [1], in test [2] and in test [3] was at most 100 nM each time.

Take `Nc1sc(-c2c(F)cccc2F)nc1C(=O)Nc1cnc2c(c1N1CC[C@H](O)[C@H](N)C1)CCC2` (single isomer, unassigned) [Example 27, 5-Amino-N-{4-[3.4-cis-3-amino-4-hydroxypiperidin-1-yl]-6,7-dihydro-5H-cyclopenta[b]pyridin-3-yl}-2-(2,6-difluorophenyl)-1,3-thiazole-4-carboxamide]: the IC50 in test [1], in test [2] and in test [3] was at most 100 nM in each case.

Consider `Nc1cc(F)c(-c2c(F)cccc2F)nc1C(=O)Nc1cnc2c(c1N1CCC[C@H](N)C1)CCCN2` [Example 32, 3-Amino-N-{4-[(3S)-3-aminopiperidin-1-yl]-5,6,7,8-tetrahydro-1,8-naphthyridin-3-yl}-6-(2,6-difluorophenyl)-5-fluoropyridine-2-carboxamide], for which the 50% inhibitory concentration (IC50) in test [1], in test [2] and in test [3] was at most 100 nM each time.

In the case of `C[S+]([O-])c1cc(F)c(-c2nc(C(=O)Nc3cnc4c(c3N3CCC[C@H](N)C3)CCC4O)ccc2F)c(F)c1` (single isomer, unassigned) [59 (Diastereoisomer 2)], the IC50 in test [1] is at most 100 nM; in test [2], 100 to 1000 nM; in test [3], at most 100 nM.
